Experimental data reported in ChEMBL document CHEMBL5335851, “Total Synthesis, Structure Reassignment, and Biological Evaluation of the Anti-Inflammatory Macrolactone 13-Hydroxy-14-deoxyoxacyclododecindione” (J Nat Prod, 2024).
pIC50: −log10 of the molar value.

Target: T1, Signal transducer and activator of transcription 6 (Homo sapiens, UniProt P42226)
T1 sequence (P42226 whole entry): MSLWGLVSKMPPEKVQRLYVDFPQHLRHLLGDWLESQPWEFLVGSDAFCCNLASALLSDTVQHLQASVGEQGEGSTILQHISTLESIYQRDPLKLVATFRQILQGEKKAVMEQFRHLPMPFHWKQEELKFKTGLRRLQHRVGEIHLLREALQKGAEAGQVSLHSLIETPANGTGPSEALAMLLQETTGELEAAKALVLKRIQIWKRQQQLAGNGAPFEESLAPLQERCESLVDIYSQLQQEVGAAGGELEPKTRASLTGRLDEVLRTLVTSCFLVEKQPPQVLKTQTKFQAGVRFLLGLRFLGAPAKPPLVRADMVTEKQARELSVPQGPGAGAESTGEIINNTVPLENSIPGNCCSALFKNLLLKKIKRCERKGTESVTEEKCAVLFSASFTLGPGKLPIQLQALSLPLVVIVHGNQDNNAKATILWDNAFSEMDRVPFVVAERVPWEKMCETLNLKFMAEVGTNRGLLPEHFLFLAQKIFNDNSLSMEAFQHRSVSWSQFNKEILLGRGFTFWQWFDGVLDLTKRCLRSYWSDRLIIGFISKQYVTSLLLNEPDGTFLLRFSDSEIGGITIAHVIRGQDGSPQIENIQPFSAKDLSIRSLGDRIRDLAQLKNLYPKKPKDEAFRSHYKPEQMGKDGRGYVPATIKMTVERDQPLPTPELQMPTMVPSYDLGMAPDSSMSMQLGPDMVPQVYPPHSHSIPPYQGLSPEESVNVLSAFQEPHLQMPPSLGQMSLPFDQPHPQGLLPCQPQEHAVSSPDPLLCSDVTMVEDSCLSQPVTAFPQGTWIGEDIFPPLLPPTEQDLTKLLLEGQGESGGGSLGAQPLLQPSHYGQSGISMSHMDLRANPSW
Assay: Inhibition of IL-4 induced STAT6 signaling in human HepG2 cells harboring pRL-EF1alpha, pGL3-TK-7xN4 and TOPO-Stat6 plasmid assessed as luciferase activity incubated for 24 hrs
Format: cell-based

| pIC50 | Compound |
| --- | --- |
| 7.70 | C/C1=C\CC[C@H](C)[C@@H](C)OC(=O)Cc2c(Cl)c(O)cc(O)c2C1=O |
| 7.17 | C/C1=C\CCC(C)(O)C(C)OC(=O)Cc2c(Cl)c(O)cc(O)c2C1=O (centres undefined) |
| 7.10 | C/C1=C\CCC(C)(C)C(C)OC(=O)Cc2c(Cl)c(O)cc(O)c2C1=O (centres undefined) |
| 7.25 | C/C1=C\C[C@@H](O)[C@H](C)[C@@H](C)OC(=O)Cc2c(Cl)c(O)cc(O)c2C1=O |

Target: Mothers against decapentaplegic homolog 2/homolog 3 (Homo sapiens, UniProt P84022+Q15796)
Assay: Inhibition of TGF-beta induced Smad2/3 signaling in human HepG2 cells harboring pRL-EF1alpha, (CAGA)9x-MLP-Luc plasmid assessed as luciferase activity incubated for 24 hrs
Format: cell-based

| Compound | IC50 [nM] |
| --- | --- |
| C/C1=C\C[C@H](O)[C@H](C)[C@H](C)OC(=O)Cc2c(Cl)c(O)cc(O)c2C1=O | 140 |
| C/C1=C\C[C@H](O)[C@H](C)[C@@H](C)OC(=O)Cc2c(Cl)c(O)cc(O)c2C1=O | 68 |

Results, then the compound that gave them:

| IC50 [nM] | Compound |
| --- | --- |
| 240 | C/C1=C\C[C@@H](O)[C@H](C)[C@H](C)OC(=O)Cc2c(Cl)c(O)cc(O)c2C1=O |
| 100 | C/C1=C/C[C@@H](O)[C@H](C)[C@@H](C)OC(=O)Cc2c(Cl)c(O)cc(O)c2C1=O |
| 68 | C/C1=C/C[C@H](O)[C@H](C)[C@@H](C)OC(=O)Cc2c(Cl)c(O)cc(O)c2C1=O |
